Assay results published in patent publication US4477440A, “Renin inhibitors containing an n-terminal disulfide cycle” (Merck & Co., Inc., priority 1983, dated 1984).
Positions of bridges follow the written chain, without caps; N, C: chain ends. Non-standard residues stand in square brackets, D forms with d. Residues, ends and D or L forms follow the SMILES beside them. Sta = CC(C)C[C@H](N)[C@@H](O)CC(=O)O; hCys = N[C@@H](CCS)C(=O)O

Experiments:
human kidney renin = target: T1, human kidney renin (Homo sapiens, UniProt P00797); assay: Human renin inhibition; format: biochemical; conditions: purified human kidney renin; dissociation constant of enzyme-inhibitor complex
T1 construct: human kidney renin purified as described in Bangham; from tissue; host or cells: human kidney
T1 sequence (P00797 67-406): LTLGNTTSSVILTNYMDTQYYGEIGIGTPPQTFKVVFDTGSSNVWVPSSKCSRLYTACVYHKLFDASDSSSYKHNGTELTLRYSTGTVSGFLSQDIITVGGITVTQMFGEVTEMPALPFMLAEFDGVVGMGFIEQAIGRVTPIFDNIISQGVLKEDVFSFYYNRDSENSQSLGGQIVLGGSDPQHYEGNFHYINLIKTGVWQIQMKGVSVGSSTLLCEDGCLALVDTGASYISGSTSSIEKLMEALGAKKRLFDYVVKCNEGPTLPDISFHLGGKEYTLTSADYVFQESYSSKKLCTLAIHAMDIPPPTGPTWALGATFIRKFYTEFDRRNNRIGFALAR
Protocol: An assay was carried out in order to determine the inhibitory potency of the peptides of the present invention. The assay measured the inhibition of human kidney renin purified as described in Bangham, D. R., Robertson, I., Robinson, J. I. S., Robinson, C. J., and Tree, M., Clinical Science and Molecular Medicine, 48 (Supp. 2): 136s-159s (1975), and further purified by affinity chromatography on pepstatin-aminohexyl-Sepharase as described in Poe, M., Wu., J. K., Florance, J. R., Radkey, J. A., Bennett, C. D., and Hoogsteen, K., J. Biol. Chem. (1982, in press). The assay was also in accordance with Poe et al. cited above. Results are expressed as KI values, which refer to the dissociation constant of the inhibited enzyme-inhibitor complex. This KI value was obtained as described above. Pepstatin was used as an active control.

hog renin = conditions: after injection of hog renin into nephrectomized rats; cited from earlier work

Row | Ki (human kidney renin) | Compound | blood pressure in vivo (hog renin)
1 | 410 nM | COC(=O)[C@H](Cc1ccccc1)NC(=O)[C@H](CC(C)C)NC(=O)C[C@H](O)[C@H](CC(C)C)NC(=O)[C@@H]1CCSSCC[C@H](N)C(=O)N2CCC[C@H]2C(=O)N[C@@H](Cc2ccccc2)C(=O)N1 (H-[hCys]PF[hCys][Sta]LF-OMe; disulfide 1-4) | –
2 | – | pepstatin | reduce blood pressure in vivo
